The values that follow are results of earlier work, collected in article PMC8623851, “The Structural Determinants for α1-Adrenergic/Serotonin Receptors Activity among Phenylpiperazine-Hydantoin Derivatives” (Molecules, 2021).

The term Ki denotes a dissociation constant, usually derived from enzyme kinetics or from competition with a known ligand.

Data set [1] deals with 5-HT2AR. Also noted: method as in PMID 31330215. Conditions: cited from earlier work.
Data set [2] addresses α1DR. The arrangement: method as in PMID 31330215. Conditions: cited from earlier work.
The target of data set [3] is α1BR. Also noted: method as in PMID 31330215. Conditions: cited from earlier work.
The target of data set [4] is 5-HT1AR. The arrangement: method as in PMID 31330215. Conditions: cited from earlier work.
Data set [5] has as its system behavioral models. Also noted: method as in PMID 31330215. Conditions: cited from earlier work.
Data set [6] has as its target α1AR. The arrangement: method as in PMID 31330215. Conditions: cited from earlier work.
The target of data set [7] is α1-receptor. The arrangement: method as in PMID 31383628, PMID 29425815. Conditions: previously reported arylpiperazine hydantoin derivatives; cited from earlier work.
Data set [8] concerns the target human 5-HT7b receptor (Homo sapiens, UniProt P34969). The arrangement: expressed in transfected cells; host or cells: HEK-293; method as in PMID 31383628, PMID 29425815. Conditions: previously reported arylpiperazine hydantoin derivatives; read-out: Ki 5-HT7; cited from earlier work.

Chain of human 5-HT7b receptor (P34969 1-432): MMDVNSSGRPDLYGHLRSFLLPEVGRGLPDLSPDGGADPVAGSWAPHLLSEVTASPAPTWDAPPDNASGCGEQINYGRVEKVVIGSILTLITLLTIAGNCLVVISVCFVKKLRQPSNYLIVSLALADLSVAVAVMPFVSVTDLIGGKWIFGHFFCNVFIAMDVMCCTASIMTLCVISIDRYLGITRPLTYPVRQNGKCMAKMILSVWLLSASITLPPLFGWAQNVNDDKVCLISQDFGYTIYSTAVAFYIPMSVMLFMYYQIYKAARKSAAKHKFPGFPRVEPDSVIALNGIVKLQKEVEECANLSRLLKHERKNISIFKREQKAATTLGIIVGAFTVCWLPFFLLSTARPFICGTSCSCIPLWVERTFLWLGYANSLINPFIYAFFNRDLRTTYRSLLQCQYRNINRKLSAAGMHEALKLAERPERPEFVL

As to `COc1ccccc1N1CCN(CCn2cnc3ccccc3c2=O)CC1` [ACH-000029], the Ki in data set [1] is 500 nM; in data set [2], 1.1 nM; in data set [3] it was 4.6 nM; in data set [4] it was 14 nM; in data set [6], 0.07 nM. Besides, in data set [5], the anxiolytic activity entry is recorded as “anxiolytic activity in behavioral models”.
Turning to `COc1ccccc1N1CCN(CC(O)CN2C(=O)NC(C)(c3ccc(F)cc3)C2=O)CC1` (stereo not drawn) [Compound 2], in data set [7], the Ki is 230 nM.
With `COc1ccc(C2(C)NC(=O)N(CC(O)CN3CCN(c4ccccc4OC)CC3)C2=O)cc1` (stereo not drawn) [Compound 3], the Ki was 530 nM in data set [7] and 8 nM in data set [8].
